Results taken from US11219614B2, “Combination cancer therapy with pentaaza macrocyclic ring complex and ascorbate compound” (Galera Labs, LLC, priority 2016, dated 2022).

Legend:
[1] = tested on: Non-small cell lung cancer cells (H1299); experiment: clonogenic cell survival assay, H1299; assay type: cell-based
Procedure: (§1) FIG. 1 is a plot showing the surviving fraction of H1299 cells for increasing amounts of ascorbate, as determined by a clonogenic cell survival assay used to determine the effects of the compound alone and in combination with a pentaaza macrocyclic ring complex (GC4419). Non-small cell lung cancer cells (H1299) were exponentially grown in culture for 48 hours. The cells were then treated with 5-20 μM GC4419 for 24 hours and ascorbate (Asc) for one hour, followed immediately by clonogenic assay. The cells were trypsinized, counted, replated at varying lower densities and incubated. Plates were stained and counted for clonogenic survival assays.
as §1, with “FIG. 10” for “FIG. 1”, “with either the” for “with a”, “complex (GC4419) or the pentaaza macrocyclic ring complex (GC4401).” for “complex (GC4419).”, “with ascorbate (Asc) at the concentrations shown for one hour and either 10” for “with 5-20”, “GC4419 or 10 μM GC4401” for “GC4419”, “24 hours. After 24 hours, the” for “24 hours and ascorbate (Asc) for one hour, followed immediately by clonogenic assay. The”
FIG. 11 is a graph showing the surviving fraction of H1299 cells treated with ascorbate and combinations including ascorbate and/or auranofin. […] The cells were then trypsinized, counted, replated at varying lower densities and incubated. Plates were stained and counted for clonogenic survival assays.
(§2) The effect of ascorbate was tested in a clonogenic cell survival assay to determine the effects of the compound alone and in combination with a pentaaza macrocyclic ring complex (GC4419). […] The cells were trypsinized, counted, replated at varying lower densities and incubated. Plates were stained and counted for clonogenic survival assays.
as §2, with “with the” for “with a”, “complex (GC4419) and the pentaaza macrocyclic ring complex (GC4401).” for “complex (GC4419).”
The effects of ascorbate in combination with a pentaaza macrocyclic ring complex (GC4419) was tested in a clonogenic cell survival assay to determine the effects of the combination alone and when paired with the thioredoxin reductase inhibitor auranofin. […] The cells were then trypsinized, counted, replated at varying lower densities and incubated. […]

[2] = tested on: head and neck squamous cell carcinoma cells (SCC25); experiment: clonogenic cell survival assay, SCC25; assay type: cell-based, Human; conditions: ascorbate 1 h in combination with 5, 10 or 20 μM GC4419 24 h, both present at the same time; compared to monotherapies or sequential treatment with media replacement; FIG. 3
Procedure: FIG. 3 is a plot showing the surviving fraction of SCC25 cells for increasing amounts of ascorbate, as determined by a clonogenic cell survival assay used to determine the effects of the compound alone and in combination with a pentaaza macrocyclic ring complex (GC4419). Human head and neck squamous cell carcinoma cells (SCC25) were exponentially grown in culture for 24 hours. The cells were then treated with 5-20 μM GC4419 for 24 hours and ascorbate (Asc) for one hour, followed by immediate clonogenic assay. The cells were trypsinized, counted, replated at varying lower densities and incubated. Plates were stained and counted for clonogenic survival assays.
The effect of ascorbate was tested in a clonogenic cell survival assay to determine the effects of the compound alone and in combination with a pentaaza macrocyclic ring complex (GC4419). Human head and neck squamous cell carcinoma cells (SCC25) were exponentially grown in culture for 24 hours. The cells were then treated with 5-20 μM GC4419 for 24 hours, and ascorbate (Asc) for one hour, followed by immediate clonogenic assay. The cells were trypsinized, counted, replated at varying lower densities and incubated. Plates were stained and counted for clonogenic survival assays.

With `[Cl][Mn][Cl].c1cc2nc(c1)CN[C@H]1CCCC[C@@H]1NCCN[C@H]1CCCC[C@@H]1NC2` [GC4419] the “cell killing (clonogenic survival)” value ([1]; 1 μM auranofin 24 h + 10 μM GC4419 24 h + 10 pmol/cell ascorbate 1 h, compared to control, monotherapies and pairwise combinations, FIG. 11) was “also resulted in significant enhancements in cell killing”, the “cell killing (clonogenic survival)” value ([1]; 10 μM GC4419 24 h + 10 pmol/cell ascorbate 1 h, compared to control and monotherapies, FIG. 11) was “significant enhancements in cell killing” and the “cell killing (clonogenic survival)” value ([1]; ascorbate 1 h in combination with 5 μM or 20 μM GC4419 24 h, compared to ascorbate or GC4419 monotherapies, FIG. 1) was “significant enhancements in cell killing”. The “cell killing (clonogenic survival)” value ([1]; ascorbate 1 h in combination with 10 μM complex 24 h, compared to control, FIG. 10) was “significant enhancements in cell killing” and the “cell killing (clonogenic survival)” value [2] was “significant enhancements in cell killing”.
